For seven compounds, GI50 and IC50 results are on record in patent US20230066011A1, “PYRROLOPYRIMIDINE DERIVATIVE, AND PHARMACEUTICAL COMPOSITION FOR PREVENTING OR TREATING PROTEIN KINASE-RELATED DISEASE COMPRISING SAME AS ACTIVE INGREDIENT” (VORONOI CO., LTD., priority 2019, published 2023).

Molecules are shown by their SMILES.

The subject of assay [1] is SHP-77. The assay can be described thus: Inhibition of proliferation of SHP-77 cancer cells (Cell Titer-Glo). To be noted: Homo sapiens, SHP77, 72 hours. The class given is cell-based. As for the experimental part: To evaluate an inhibitory effect on the proliferation of cancer cells, each of an MDA-MB-231 cell line (Korean Cell Line Bank #30026) and an MDA-MB-468 cell line as triple-negative breast cancer cell lines, and SHP-77 (ATCC #CRL-2195) as a small-cell lung cancer cell line was cultured in DMEM (HyClone #SH30243) or an RPMI medium (HyClone #SH3027.01) to analyze a cell growth rate. More specifically, a cell line was plated on a 96-well flat bottom plate (Corning #3903) at a density of 2,000 cells/100 μL per well, and then treated with 11 concentrations of the Example compound, a solution of which was diluted 3-fold so that a final concentration of the compound was 10.000000, 3.333333, 1.111111, 0.370370, 0.123457, 0.041152, 0.013717, 0.004572, 0.001524, 0.000508, and 0.000169 μM. After 72 hours, each of the culture media was treated with 100 μL of Cell Titer-Glo (Promega G7573), and then cultured at room temperature for 10 minutes. Then, a degree of luminescence was measured using a microplate reader. A GI50 value was calculated from the measured degree of luminescence using Prism (Version 8.2 GraphPad) software.

The target in assay [2] is T1, human GST-CLK1 (Homo sapiens, UniProt P49759).
T1 construct: purified human GST-CLK1 (129-end, SignalChem) enzyme; purchased SignalChem
Kind of assay: GST-CLK1 enzyme inhibition, ADP-Glo kinase assay. The class given is biochemical. To be noted: ATP 10 μM, GST-CLK1 129-end. The procedure, abridged: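 Human GST-CLK1 (129-end, 3 ng) reacted with substrate and 10 μM ATP for 1 h at 25° C in 40 mM Tris-HCl pH 7.4, 20 mM MgCl2, 0.5 mg/mL BSA, 50 μM DTT. ADP-Glo luminescence was normalised to solvent control; IC50 (nM) from 3 data sets.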

The target in assay [3] is LRRK2 (G2019S) (Homo sapiens, UniProt Q5S007, G2019S). Kind of assay: LRRK2 G2019S enzyme inhibition, ADP-Glo kinase assay. Set-up: purchased SignalChem L10-12GG. To be noted: ATP 25 μM. Format: biochemical. Put shortly: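 Purified human LRRK2 G2019S (16 ng) with 25 μM ATP and 0.2 μg substrate, 2 h at 25° C. in Tris-HCl pH 7.4, MgCl2, BSA, DTT buffer; compounds at 12 final concentrations, 50 μM down to 0.000001024 μM. ADP-Glo luminescence versus solvent control gave IC50.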
(In general: In ADP-Glo the light output rises with the ADP produced.)

In assay [4] the test system is MDA-MB-231 cell line. The assay can be described thus: Inhibition of proliferation of MDA-MB-231 cancer cells (Cell Titer-Glo). Format: cell-based. To be noted: Homo sapiens, 72 hours. The procedure, abridged: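 Cells seeded at 2,000/well and exposed 72 h to 11 concentrations of compound (3-fold dilutions, final 10.000000 down to 0.000169 μM) in DMEM or RPMI. Viability read by Cell Titer-Glo luminescence after 10 min at room temperature; GI50 calculated from luminescence.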
(In ATP-based viability assays light output follows the ATP content of the culture.)

Assay [5] deals with T2, human GST-DYRK1A (Homo sapiens, UniProt Q13627).
T2 construct: purified human GST-DYRK1A (full length, Thermo Scientifics) enzyme; purchased Thermo Scientifics
The assay can be described thus: GST-DYRK1A enzyme inhibition, ADP-Glo kinase assay. Format: biochemical. To be noted: ATP 10 μM, GST-DYRK1A full length, read-out: DYRK1 IC50. The procedure, abridged:
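Full-length human GST-DYRK1A (10 ng) with 10 μM ATP and specific substrate in 40 mM Tris-HCl pH 7.4, 20 mM MgCl2, 0.5 mg/mL BSA, 50 μM DTT, 1 h at 25 °C. ADP formation read by ADP-Glo luminescence relative to solvent control; IC50 from three data sets.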

The target of assay [6] is LRRK2 (Homo sapiens, UniProt Q5S007). The assay can be described thus: LRRK2 enzyme inhibition, ADP-Glo kinase assay. The class given is biochemical. Set-up: purchased Invitrogen PR8604B. To be noted: ATP 10 μM. Put shortly:
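Purified human LRRK2 (25 ng) with 10 μM ATP and 0.2 μg substrate in 40 mM Tris-HCl pH 7.4, 20 mM MgCl2, 0.5 mg/mL BSA, 50 μM DTT, 2 h at 25° C. ADP-Glo luminescence; 12-point compound series from 50 μM final; IC50 relative to solvent control.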

Chain of LRRK2 (G2019S) (Q5S007 970-2527 G2019S limits assumed): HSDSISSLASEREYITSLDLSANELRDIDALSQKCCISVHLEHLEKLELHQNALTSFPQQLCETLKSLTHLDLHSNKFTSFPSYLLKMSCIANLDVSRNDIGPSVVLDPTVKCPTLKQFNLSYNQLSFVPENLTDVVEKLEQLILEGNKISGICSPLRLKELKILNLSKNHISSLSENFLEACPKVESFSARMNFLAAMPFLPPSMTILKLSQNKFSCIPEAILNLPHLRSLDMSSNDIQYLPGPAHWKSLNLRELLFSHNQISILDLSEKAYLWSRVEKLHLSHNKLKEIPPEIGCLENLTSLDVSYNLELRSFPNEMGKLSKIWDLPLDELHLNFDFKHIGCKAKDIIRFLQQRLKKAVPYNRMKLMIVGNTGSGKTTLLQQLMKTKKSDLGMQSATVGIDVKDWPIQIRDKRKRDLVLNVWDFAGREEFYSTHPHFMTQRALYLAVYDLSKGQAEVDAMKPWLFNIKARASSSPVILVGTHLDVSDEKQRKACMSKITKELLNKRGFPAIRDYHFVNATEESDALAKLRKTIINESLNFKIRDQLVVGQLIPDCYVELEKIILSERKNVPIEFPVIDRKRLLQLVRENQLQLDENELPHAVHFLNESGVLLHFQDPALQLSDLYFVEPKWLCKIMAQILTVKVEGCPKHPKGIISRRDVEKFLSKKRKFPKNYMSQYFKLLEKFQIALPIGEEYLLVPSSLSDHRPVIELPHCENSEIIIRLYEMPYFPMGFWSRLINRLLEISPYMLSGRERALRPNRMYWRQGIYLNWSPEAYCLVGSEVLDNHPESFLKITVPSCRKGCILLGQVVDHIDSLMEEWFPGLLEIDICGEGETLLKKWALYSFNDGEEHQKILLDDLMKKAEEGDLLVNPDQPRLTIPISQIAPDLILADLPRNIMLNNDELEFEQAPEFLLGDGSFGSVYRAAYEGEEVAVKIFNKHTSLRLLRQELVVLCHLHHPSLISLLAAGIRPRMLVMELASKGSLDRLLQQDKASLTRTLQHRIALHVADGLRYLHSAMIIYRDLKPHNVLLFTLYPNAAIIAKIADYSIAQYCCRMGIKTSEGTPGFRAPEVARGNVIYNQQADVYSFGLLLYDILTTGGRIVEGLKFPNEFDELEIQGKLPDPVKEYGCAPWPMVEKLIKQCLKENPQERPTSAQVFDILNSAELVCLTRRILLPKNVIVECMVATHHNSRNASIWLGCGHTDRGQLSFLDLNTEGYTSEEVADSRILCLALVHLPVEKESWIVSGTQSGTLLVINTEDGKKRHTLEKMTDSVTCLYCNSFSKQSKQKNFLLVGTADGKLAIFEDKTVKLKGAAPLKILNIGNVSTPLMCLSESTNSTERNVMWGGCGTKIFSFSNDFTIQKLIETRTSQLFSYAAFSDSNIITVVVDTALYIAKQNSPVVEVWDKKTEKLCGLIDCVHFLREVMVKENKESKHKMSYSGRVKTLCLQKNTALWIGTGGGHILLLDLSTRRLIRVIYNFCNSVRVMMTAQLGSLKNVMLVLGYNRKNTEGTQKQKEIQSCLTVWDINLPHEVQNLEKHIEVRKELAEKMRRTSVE
T1 sequence (P49759 129-484 limits assumed): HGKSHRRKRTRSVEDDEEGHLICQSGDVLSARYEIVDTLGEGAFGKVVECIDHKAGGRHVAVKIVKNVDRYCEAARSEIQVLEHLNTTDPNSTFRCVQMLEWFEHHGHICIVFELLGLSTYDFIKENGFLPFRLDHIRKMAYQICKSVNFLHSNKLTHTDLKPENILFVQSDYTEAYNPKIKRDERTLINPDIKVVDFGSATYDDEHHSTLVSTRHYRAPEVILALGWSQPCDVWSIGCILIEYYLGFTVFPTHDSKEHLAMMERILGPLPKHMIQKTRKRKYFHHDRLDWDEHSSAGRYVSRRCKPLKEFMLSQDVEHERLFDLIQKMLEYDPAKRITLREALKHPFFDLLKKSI
Chain of LRRK2 (Q5S007 970-2527 limits assumed): as the sequence (Q5S007 970-2527 G2019S limits assumed) above, with S1050G counted along it

`CC[C@@H](C)Nc1nc(Nc2ccc(S(=O)(=O)N3CCC(N4CCOCC4)CC3)cc2OC)nc2[nH]cc(C(F)(F)F)c12` [Example 172, (R)-N^4-(sec-butyl)-N^2-(2-methoxy-4-((4-morpholinopiperidin-1-yl)sulfonyl)phenyl)-5-(trifluoromethyl)-7H-pyrrolo[2,3-d]pyrimidine-2,4-diamine]: the GI50 (in general, the concentration at which growth is held to half of that of the control) lay within 101 to 300 nM in assay [1] and 301 to 1000 nM in assay [4]. For the same compound, the IC50 in assay [2], in assay [3], in assay [5] and in assay [6] was 0.301 to 1 µM each time.
As for `COc1cc(S(=O)(=O)N2CCC(N3CCOCC3)CC2)ccc1Nc1nc(NC2CCC2)c2c(C(F)(F)F)c[nH]c2n1` [Example 183, N^4-cyclobutyl-N^2-(2-methoxy-4-((4-morpholinopiperidin-1-yl)sulfonyl)phenyl)-5-(trifluoromethyl)-7H-pyrrolo[2,3-d]pyrimidine-2,4-diamine], the GI50 in assay [1] and in assay [4] was 301 to 1000 nM in each case. Also, the IC50 (usually the concentration at which inhibition is half-maximal) in assay [2] was 0.301 to 1 µM; in assay [3], 0.101 to 0.3 µM; in assay [5], 0.301 to 1 µM; in assay [6] it was < 0.1 µM.
As for `CNc1nc(Nc2ccc(S(=O)(=O)N3CCOCC3)cc2OC)nc2[nH]cc(C(F)(F)F)c12` [Example 160, N^2-(2-methoxy-4-(morpholinosulfonyl)phenyl)-N^4-methyl-5-(trifluoromethyl)-7H-pyrrolo[2,3-d]pyrimidine-2,4-diamine], the GI50 was 51 to 100 nM in assay [1] and 301 to 1000 nM in assay [4]. In addition, the IC50 in assay [2] is 0.301 to 1 µM; in assay [3] it was 0.301 to 1 µM; in assay [5], 0.301 to 1 µM; in assay [6], < 0.1 µM.
On to `CNc1nc(Nc2ccc(S(=O)(=O)N3CCOCC3)cc2OC)nc2[nH]cc(C#N)c12` [Example 62, 2-((2-methoxy-4-(morpholinosulfonyl)phenyl)amino)-4-(methylamino)-7H-pyrrolo[2,3-d]pyrimidine-5-carbonitrile], for which the GI50 in assay [1] and in assay [4] was 51 to 100 nM each time. In addition, the IC50 is 0.301 to 1 µM in assay [2], < 0.1 µM in assay [3], 0.301 to 1 µM in assay [5] and < 0.1 µM in assay [6].
As to `COc1cc(S(=O)(=O)N2CCOCC2)ccc1Nc1nc(NC2CC2)c2c(C#N)c[nH]c2n1` [Example 70, 4-(cyclopropylamino)-2-((2-methoxy-4-(morpholinosulfonyl)phenyl)amino)-7H-pyrrolo[2,3-d]pyrimidine-5-carbonitrile], the GI50 in assay [1] and in assay [4] was 301 to 1000 nM each time. Moreover, the IC50 in assay [2] is 0.301 to 1 µM; in assay [3], < 0.1 µM; in assay [5], 0.301 to 1 µM; in assay [6], < 0.1 µM.
With `COc1cc(S(=O)(=O)N2CCOCC2)ccc1Nc1nc(NC(C)C)c2c(C(F)(F)F)c[nH]c2n1` [Example 164, N^4-isopropyl-N^2-(2-methoxy-4-(morpholinosulfonyl)phenyl)-5-(trifluoromethyl)-7H-pyrrolo[2,3-d]pyrimidine-2,4-diamine], the results for the GI50 in assay [1] and in assay [4] were 51 to 100 nM and 301 to 1000 nM, respectively. In addition, the IC50 in assay [2] was 0.301 to 1 µM; in assay [3], 0.301 to 1 µM; in assay [5], 0.301 to 1 µM; in assay [6], < 0.1 µM.
For `COc1cc(S(=O)(=O)N2CCC(N3CCOCC3)CC2)ccc1Nc1nc(NC(C)C)c2c(C(F)(F)F)c[nH]c2n1` [Example 165, N^4-isopropyl-N^2-(2-methoxy-4-((4-morpholinopiperidin-1-yl)sulfonyl)phenyl)-5-(trifluoromethyl)-7H-pyrrolo[2,3-d]pyrimidine-2,4-diamine], the figures for the GI50 in assay [1] and in assay [4] were 51 to 100 nM and < 50 nM, respectively. Also, the IC50 in assay [2] was 0.301 to 1 µM; in assay [3], 0.101 to 0.3 µM; in assay [5] it was 0.301 to 1 µM; in assay [6] it was < 0.1 µM.
